Results on eleven compounds are retold here after US20250186541A1, “DLL3 TARGETING PEPTIDES AND CONSTRUCTS THEREOF” (MARIANA ONCOLOGY INC., priority 2023, published 2025).

Numbered stars: 1 amine (or outer) side, 2 acyl side, 3 side chain; on linkers, the order of the positions; unused ones are H or OH. Bridge positions count the residues as written; N and C are the ends. Square brackets hold non-standard residues; d marks the D form. Side chains are listed from the residue outwards. Peptide text beside a SMILES is read from it. * marks the point of attachment. ξ: configuration not given here. DOTA = O=C(O)CN1CCN(CC(=O)O)CCN(CC(=O)*)CCN(CC(=O)O)CC1; X3 = O=C([C@H](Cc1ccccc1CN[*:3])N[*:1])[*:2]; 1Nal = N[C@@H](Cc1cccc2ccccc12)C(=O)O; 2Nal = N[C@@H](Cc1ccc2ccccc2c1)C(=O)O; Phe(2-Me) = Cc1ccccc1C[C@H](N)C(=O)O; ξγGlu = O=C(O)C(CCC(=O)[*:2])N[*:1]; tBuAla = CC(C)(C)C[C@H](N)C(=O)O; NMeD = CN[C@@H](CC(=O)O)C(=O)O; AllylGly = C=CC[C@H](N)C(=O)O; Pen = CC(C)(S)[C@H](N)C(=O)O; αMeP = C[C@@]1(C(=O)O)CCCN1; NMeS = CN[C@@H](CO)C(=O)O; αMeS = C[C@](N)(CO)C(=O)O; Ahx = NCCCCCC(=O)O

For the assay, the target named is T1, human DLL3 (Homo sapiens, UniProt Q9NYJ7).
T1 construct: biotin (biotinylated)
T1 sequence (Q9NYJ7 27-618): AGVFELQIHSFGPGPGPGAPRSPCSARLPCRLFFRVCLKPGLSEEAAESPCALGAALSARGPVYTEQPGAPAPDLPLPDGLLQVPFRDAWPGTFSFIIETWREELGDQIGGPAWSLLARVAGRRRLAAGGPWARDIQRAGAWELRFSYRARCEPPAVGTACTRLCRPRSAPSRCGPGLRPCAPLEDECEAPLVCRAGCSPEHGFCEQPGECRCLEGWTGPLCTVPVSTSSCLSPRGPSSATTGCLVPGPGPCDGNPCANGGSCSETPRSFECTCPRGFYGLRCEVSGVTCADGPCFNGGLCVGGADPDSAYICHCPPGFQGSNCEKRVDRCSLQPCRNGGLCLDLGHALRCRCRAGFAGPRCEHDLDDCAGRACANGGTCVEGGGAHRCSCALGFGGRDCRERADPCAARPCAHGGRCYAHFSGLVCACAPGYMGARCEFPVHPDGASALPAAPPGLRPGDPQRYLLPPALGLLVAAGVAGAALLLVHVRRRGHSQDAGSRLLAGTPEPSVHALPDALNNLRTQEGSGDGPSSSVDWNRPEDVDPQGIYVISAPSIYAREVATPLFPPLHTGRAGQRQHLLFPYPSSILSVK
Nature of the assay: Affinity determination by Surface Plasmon Resonance (SPR), Biacore, 1:1 binding model. Conditions: biotinylated human DLL3 on streptavidin chip, 25° C.; NB = nonbinding. Put shortly:
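SPR with biotinylated human DLL3 captured on a streptavidin chip, with a reference surface subtracted. Samples were injected at several concentrations at 100 μL/min in phosphate buffer with 137 mM NaCl, 2.7 mM KCl, 0.05% P20 and 2% DMSO. Kinetic and affinity constants came from a 1:1 binding fit.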

The term Kd denotes a measure of binding affinity in units of concentration. Higher therefore signals lower affinity. On to `CC(=O)N[C@H](C)C(=O)N[C@@H](CO)C(=O)N[C@@H](CC(=O)O)C(=O)N[C@H]1CSSC[C@@H](C(=O)N2CCC[C@@]2(C)C(=O)N[C@@H](Cc2ccccc2)C(=O)N(C)[C@@H](CC(=O)O)C(=O)N[C@H](CCCCNC(=O)CN2CCN(CC(=O)O)CCN(CC(=O)O)CCN(CC(=O)O)CC2)C(=O)O)NC(=O)[C@H](CC(N)=O)NC(=O)[C@H](Cc2ccc3ccccc3c2)NC(=O)[C@H](CCC(N)=O)NC(=O)[C@H](CC(C)(C)C)NC(=O)[C@H](Cc2cccc3ccccc23)NC1=O` [compound 149, Ac-(D-Ala)-S-D-C(3)-(1Nal)-(t-Bu-Ala)-Q-(2Nal)-N-C(3)-(aMe-P)-F-(NMe-D)-D-Lys(DOTA)-CONH2] (Ac-[dA]SDC[1Nal][tBuAla]Q[2Nal]NC[αMeP]F[NMeD][dK](DOTA)-OH; disulfide 4-10), for which the Kd is greater than 30000 pM. `CC(=O)N[C@H](C)C(=O)N[C@@H](CO)C(=O)N[C@@H](CC(=O)O)C(=O)N[C@H]1CSSC[C@@H](C(=O)N2CCC[C@@]2(C)C(=O)N[C@@H](Cc2ccccc2C)C(=O)N[C@@H](CC(=O)O)C(N)=O)NC(=O)[C@H](CC(N)=O)NC(=O)[C@H](Cc2ccc3ccccc3c2)NC(=O)[C@H](CCCCNC(=O)CCC(NC(=O)CN2CCN(CC(=O)O)CCN(CC(=O)O)CCN(CC(=O)O)CC2)C(=O)O)NC(=O)[C@H](CC(C)(C)C)NC(=O)[C@H](Cc2cccc3ccccc23)NC1=O` (stereo partly drawn) [compound 152, Ac-(D-Ala)-S-D-C(3)-(1Nal)-(t-Bu-Ala)-[L-Lys(yE-DOTA)]-(2Nal)-N-C(3)-(aMe-P)-(2Me-F)-D-CONH2] (Ac-[dA]SDC[1Nal][tBuAla]K([ξγGlu-DOTA])[2Nal]NC[αMeP][Phe(2-Me)]D-NH2; disulfide 4-10) came in with a Kd of 510 pM. In other words, the sub-nanomolar range. With `Cc1ccccc1C[C@H](NC(=O)[C@]1(C)CCCN1C(=O)[C@@H]1CSSC[C@H](NC(=O)[C@H](CC(=O)O)NC(=O)[C@H](CO)NC(=O)CCCCCNC(=O)CN2CCN(CC(=O)O)CCN(CC(=O)O)CCN(CC(=O)O)CC2)C(=O)N[C@@H](Cc2cccc3ccccc23)C(=O)N[C@@H](CC(C)(C)C)C(=O)N[C@@H](CCC(N)=O)C(=O)N[C@@H](Cc2ccc3ccccc3c2)C(=O)N[C@@H](CC(N)=O)C(=O)N1)C(=O)N[C@@H](CC(=O)O)C(N)=O` [compound 155, DOTA-Ahx-S-D-C(3)-(1Nal)-(t-Bu-Ala)-Q-(2Nal)-N-C(3)-(aMe-P)-(2Me-F)-D-CONH2] ({DOTA-Ahx}-SDC[1Nal][tBuAla]Q[2Nal]NC[αMeP][Phe(2-Me)]D-NH2; disulfide 3-9) the figure was 110 pM. As to `CC(C)(C)C[C@@H]1NC(=O)[C@H](Cc2cccc3ccccc23)NC(=O)[C@@H](NC(=O)[C@H](CC(=O)O)NC(=O)[C@H](CO)NC(=O)CCCCCNC(=O)CN2CCN(CC(=O)O)CCN(CC(=O)O)CCN(CC(=O)O)CC2)CSSC[C@@H](C(=O)N2CCC[C@@]2(C)C(=O)N[C@@H](Cc2ccccc2)C(=O)N[C@@H](CC(=O)O)C(=O)O)NC(=O)[C@H](CC(N)=O)NC(=O)[C@H](Cc2ccc3ccccc3c2)NC(=O)[C@H](CCC(N)=O)NC1=O` [compound 156, DOTA-Ahx-S-D-C(3)-(1Nal)-(t-Bu-Ala)-Q-(2Nal)-N-C(3)-(aMe-P)-F -D-COOH] ({DOTA-Ahx}-SDC[1Nal][tBuAla]Q[2Nal]NC[αMeP]FD-OH; disulfide 3-9), the affinity, expressed as Kd, was 110 pM. Turning to `CC(=O)N[C@H](C)C(=O)N[C@@H](CO)C(=O)N[C@@H](CC(=O)O)C(=O)N[C@H]1CSSC[C@@H](C(=O)N2CCC[C@@]2(C)C(=O)N[C@@H](Cc2ccccc2CNC(=O)CN2CCN(CC(=O)O)CCN(CC(=O)O)CCN(CC(=O)O)CC2)C(=O)N[C@@H](CC(=O)O)C(N)=O)NC(=O)[C@H](CC(N)=O)NC(=O)[C@H](Cc2ccc3ccccc3c2)NC(=O)[C@H](CCC(N)=O)NC(=O)[C@H](CC(C)(C)C)NC(=O)[C@H](Cc2cccc3ccccc23)NC1=O` [compound 159, Ac-(D-Ala)-S-D-C(3)-(1Nal)-(t-Bu-Ala)-Q-(2Nal)-N-C(3)-(aMe-P)-[OAF(DOTA)]-D-CONH2] (Ac-[dA]SDC[1Nal][tBuAla]Q[2Nal]NC[αMeP][X3](DOTA)D-NH2; disulfide 4-10), the Kd is greater than 30000 pM.

`CC(=O)N[C@H](C)C(=O)N[C@@H](CO)C(=O)N[C@@H](CC(=O)O)C(=O)N[C@H]1C/C=C/C[C@@H](C(=O)N2CCC[C@@]2(C)C(=O)N[C@@H](Cc2ccccc2)C(=O)N[C@@H](CC(=O)O)C(=O)N[C@H](CCCCNC(=O)CN2CCN(CC(=O)O)CCN(CC(=O)O)CCN(CC(=O)O)CC2)C(N)=O)NC(=O)[C@H](CC(N)=O)NC(=O)[C@H](Cc2ccc3ccccc3c2)NC(=O)[C@H](CCC(N)=O)NC(=O)[C@H](CC(C)(C)C)NC(=O)[C@H](Cc2cccc3ccccc23)NC1=O` [compound 161, Ac-(D-Ala)-S-D-AllyG(4)-(1Nal)-(t-Bu-Ala)-Q-(2Nal)-N-AllyG(4)-(aMe-P)-F -D-D-Lys(DOTA)-CONH2] (Ac-[dA]SD[AllylGly][1Nal][tBuAla]Q[2Nal]N[AllylGly][αMeP]FD[dK](DOTA)-NH2; staple (E) 4-10) displayed a Kd of 240 pM. This counts as sub-nanomolar. On to `CC(=O)N[C@H](C)C(=O)N[C@@H](CO)C(=O)N[C@@H](CC(=O)O)C(=O)N[C@@H]1C(=O)N[C@@H](Cc2cccc3ccccc23)C(=O)N[C@@H](CC(C)(C)C)C(=O)N[C@@H](CCC(N)=O)C(=O)N[C@@H](Cc2ccc3ccccc3c2)C(=O)N[C@@H](CC(N)=O)C(=O)N[C@H](C(=O)N2CCC[C@@]2(C)C(=O)N[C@@H](Cc2ccccc2)C(=O)N[C@@H](CC(=O)O)C(=O)N[C@H](CCCCNC(=O)CN2CCN(CC(=O)O)CCN(CC(=O)O)CCN(CC(=O)O)CC2)C(N)=O)CSSC1(C)C` [compound 162, Ac-(D-Ala)-S-D-Pen(3)-(1Nal)-(t-Bu-Ala)-Q-(2Nal)-N-C(3)-(aMe-P)-F -D-D-Lys(DOTA)-CONH2] (Ac-[dA]SD[Pen][1Nal][tBuAla]Q[2Nal]NC[αMeP]FD[dK](DOTA)-NH2; disulfide 4-10), for which the Kd was 224000 pM.

For `CC(=O)N[C@H](C)C(=O)N[C@@H](CO)C(=O)N[C@@H](CC(=O)O)C(=O)N[C@H]1CSSC[C@@H](C(=O)N2CCC[C@@]2(C)C(=O)N[C@@H](Cc2ccccc2)C(=O)N[C@@H](CC(=O)O)C(=O)N[C@H](CCCCNC(=O)CN2CCN(CC(=O)O)CCN(CC(=O)O)CCN(CC(=O)O)CC2)C(N)=O)NC(=O)[C@H](CC(N)=O)NC(=O)[C@H](Cc2ccc3ccccc3c2)NC(=O)[C@H](C)NC(=O)[C@H](CC(C)(C)C)NC(=O)[C@H](Cc2cccc3ccccc23)NC1=O` [compound 165, Ac-(D-Ala)-S-D-C(3)-(1Nal)-(t-Bu-Ala)-Ala-(2Nal)-N-C(3)-(aMe-P)-F-D-[D-Lys(DOTA)]-NH2] (Ac-[dA]SDC[1Nal][tBuAla]A[2Nal]NC[αMeP]FD[dK](DOTA)-NH2; disulfide 4-10), the Kd was 94 pM. `CC(=O)N[C@H](C)C(=O)N[C@@](C)(CO)C(=O)N[C@@H](CC(=O)O)C(=O)N[C@H]1CSSC[C@@H](C(=O)N2CCC[C@@]2(C)C(=O)N[C@@H](Cc2ccccc2)C(=O)N[C@@H](CC(=O)O)C(=O)N[C@H](CCCCNC(=O)CN2CCN(CC(=O)O)CCN(CC(=O)O)CCN(CC(=O)O)CC2)C(N)=O)NC(=O)[C@H](CC(N)=O)NC(=O)[C@H](Cc2ccc3ccccc3c2)NC(=O)[C@H](CCC(N)=O)NC(=O)[C@H](CC(C)(C)C)NC(=O)[C@H](Cc2cccc3ccccc23)NC1=O` [compound 167, Ac-(D-Ala)-(aMe-Ser)-D-C(3)-(1Nal)-(t-Bu-Ala)-Q-(2Nal)-N-C(3)-(aMe-P)-F-D-[D-Lys(DOTA)]-NH2] (Ac-[dA][αMeS]DC[1Nal][tBuAla]Q[2Nal]NC[αMeP]FD[dK](DOTA)-NH2; disulfide 4-10) gave a Kd of 240 pM.

Take `CC(=O)N[C@H](C)C(=O)N(C)[C@@H](CO)C(=O)N[C@@H](CC(=O)O)C(=O)N[C@H]1CSSC[C@@H](C(=O)N2CCC[C@@]2(C)C(=O)N[C@@H](Cc2ccccc2)C(=O)N[C@@H](CC(=O)O)C(=O)N[C@H](CCCCNC(=O)CN2CCN(CC(=O)O)CCN(CC(=O)O)CCN(CC(=O)O)CC2)C(N)=O)NC(=O)[C@H](CC(N)=O)NC(=O)[C@H](Cc2ccc3ccccc3c2)NC(=O)[C@H](CCC(N)=O)NC(=O)[C@H](CC(C)(C)C)NC(=O)[C@H](Cc2cccc3ccccc23)NC1=O` [compound 169, Ac-(D-Ala)-(NMe-Ser)-D-C(3)-(1Nal)-(t-Bu-Ala)-Q-(2Nal)-N-C(3)-(aMe-P)-F-D-[D-Lys(DOTA)]-NH2] (Ac-[dA][NMeS]DC[1Nal][tBuAla]Q[2Nal]NC[αMeP]FD[dK](DOTA)-NH2; disulfide 4-10): binding was put at a Kd of 57 pM.

The compound `CC(=O)N[C@H](C)C(=O)N[C@@H](CO)C(=O)N(C)[C@@H](CC(=O)O)C(=O)N[C@H]1CSSC[C@@H](C(=O)N2CCC[C@@]2(C)C(=O)N[C@@H](Cc2ccccc2)C(=O)N[C@@H](CC(=O)O)C(=O)N[C@H](CCCCNC(=O)CN2CCN(CC(=O)O)CCN(CC(=O)O)CCN(CC(=O)O)CC2)C(N)=O)NC(=O)[C@H](CC(N)=O)NC(=O)[C@H](Cc2ccc3ccccc3c2)NC(=O)[C@H](CCC(N)=O)NC(=O)[C@H](CC(C)(C)C)NC(=O)[C@H](Cc2cccc3ccccc23)NC1=O` [compound 170, Ac-(D-Ala)-S-(NMe-Asp)-C(3)-(1Nal)-(t-Bu-Ala)-Q-(2Nal)-N-C(3)-(aMe-P)-F-D-[D-Lys(DOTA)]-NH2] (Ac-[dA]S[NMeD]C[1Nal][tBuAla]Q[2Nal]NC[αMeP]FD[dK](DOTA)-NH2; disulfide 4-10) showed a Kd of 380 pM. This Kd is about 6.7-fold higher than that of the compound before.
